Source: the supplement of paper PMC10331698
± gives the standard deviation of the averaged measurements.

What was measured:
Assay in all cases: level (log10 ratio to DMSO vehicle control); higher = higher biomarker level / cell amount than vehicle control
Methotrexate = compound: CN(Cc1cnc2nc(N)nc(N)c2n1)c1ccc(C(=O)N[C@@H](CCC(=O)O)C(=O)O)cc1 [Methotrexate]; conditions: in DMSO
Method: (§1)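 BioMAP Diversity Plus panel of 12 human primary cell co-culture systems (3C, 4H, LPS, SAg, BT, BF4T, BE3C, CASM3C, HDF3CGF, KF3CT, MyoF, Mphg). Compounds were added 1 h before stimulation and left for 24 h (MyoF 48 h; BT 72 h for soluble read-outs or 6 d for IgG). Biomarkers were read by ELISA, cytotoxicity by SRB, PBMC viability and proliferation by Alamar Blue. Each well value was divided by the mean of 8 DMSO control wells on the same plate and log10 transformed; duplicate blinded samples were tested at 4 concentrations.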

[1] = compound: FC(F)(F)C(F)(F)C(F)(F)C(F)(F)CCI [1H,1H,2H,2H-Perfluorohexyl iodide]; conditions: in DMSO
Method: as §1

[2] = compound: FC(F)(F)COC(OCC(F)(F)F)OCC(F)(F)F [tris(Trifluoroethoxy)methane]; conditions: in DMSO
Method: as §1

[3] = compound: O=C(CC(=O)C(F)(F)C(F)(F)C(F)(F)F)c1cccs1 [(Perfluorobutyryl)-2-thenoylmethane]; conditions: in DMSO
Method: as §1

[4] = compound: O=S(=O)(O)CCC(F)(F)C(F)(F)C(F)(F)C(F)(F)F [4:2 Fluorotelomer sulfonic acid]; conditions: in DMSO
Method: as §1

[5] = compound: OCC(F)(F)C(F)(F)C(F)(F)C(F)(F)C(F)(F)C(F)(F)F [6:1 Fluorotelomer alcohol]; conditions: in DMSO
Method: as §1

[6] = compound: OCCCC(F)(F)C(F)(F)C(F)(F)C(F)(F)C(F)(F)C(F)(F)C(F)(F)C(F)(F)F [3-(Perfluorooctyl)propanol]; conditions: 6700 nM; in DMSO
Method: as §1

Test System | level (log10) (Methotrexate; 1500 nM) | level (log10) (Methotrexate; 4400 nM) | level (log10) (Methotrexate; 13000 nM) | level (log10) (Methotrexate; 40000 nM) | level (log10) ([1]; 6700 nM) | level (log10) ([1]; 20000 nM) | level (log10) ([1]; 60000 nM) | level (log10) ([2]; 6700 nM) | level (log10) ([2]; 20000 nM) | level (log10) ([2]; 60000 nM) | level (log10) ([3]; 6700 nM) | level (log10) ([3]; 20000 nM) | level (log10) ([4]; 6700 nM) | level (log10) ([4]; 20000 nM) | level (log10) ([4]; 60000 nM) | level (log10) ([5]; 6700 nM) | level (log10) ([5]; 20000 nM) | level (log10) ([5]; 60000 nM) | level (log10) [6]
LPS:sTNF-alpha | 0.0165 ± 0.033 | 0 ± 0.079 | -0.045 ± 0.024 | -0.0525 ± 0.069 | -0.003 ± 0.12 | 0.0385 ± 0.069 | 0.088 ± 0.071 | -0.009 ± 0.017 | 0.001 | 0.0105 ± 0.011 | 0.0225 ± 0.036 | 0.119 ± 0.029 | -0.0105 ± 0.011 | -0.007 ± 0.0014 | -0.0065 ± 0.0035 | -0.0625 ± 0.071 | -0.046 ± 0.09 | -0.0115 ± 0.0092 | -0.335 ± 0.2
BT:Secreted IgG | -1.302 ± 0.011 | -1.31 ± 0.079 | -1.33 | -1.26 | -0.012 ± 0.016 | -0.016 ± 0.0071 | -0.002 ± 0.014 | 0.019 ± 0.079 | -0.0135 ± 0.091 | 0.042 ± 0.014 | -0.009 ± 0.018 | -0.855 ± 0.016 | 0.006 ± 0.052 | 0.021 ± 0.061 | 0.0055 ± 0.054 | 0.004 ± 0.042 | -0.0005 ± 0.04 | -0.161 ± 0.14 | 0.009 ± 0.016
BT:sTNF-alpha | -0.067 ± 0.072 | -0.137 ± 0.11 | -0.0565 ± 0.023 | -0.0905 ± 0.1 | -0.016 ± 0.085 | -0.003 ± 0.0028 | -0.036 ± 0.095 | 0.017 ± 0.11 | -0.0365 ± 0.033 | 0.0085 ± 0.043 | -0.0385 ± 0.063 | -0.354 ± 0.13 | 0.0815 ± 0.16 | -0.063 ± 0.021 | 0.0095 ± 0.012 | 0.0265 ± 0.084 | -0.0265 ± 0.033 | -0.33 ± 0.0042 | -0.0805 ± 0.029
BF4T:uPA | 0.013 ± 0.0085 | 0.0115 ± 0.0078 | 0.005 ± 0.03 | 0.009 ± 0.028 | -0.0205 ± 0.0021 | -0.0145 ± 0.013 | 0.0115 ± 0.035 | 0.001 ± 0.0099 | -0.017 ± 0.011 | -0.0095 ± 0.00071 | -0.0235 ± 0.00071 | -0.0535 ± 0.047 | -0.013 ± 0.02 | -0.013 ± 0.0085 | 0.0105 ± 0.0078 | -0.0155 ± 0.0064 | -0.011 ± 0.018 | -0.023 ± 0.024 | 0.006 ± 0.0085
BF4T:CD54/ICAM-1 | 0.001 ± 0.0099 | -0.0135 ± 0.019 | 0.009 ± 0.0085 | 0.0095 ± 0.011 | -0.0025 ± 0.0035 | -0.0095 ± 0.0021 | -0.002 ± 0.0057 | -0.007 ± 0.017 | 0 ± 0.038 | -0.017 ± 0.017 | 0.011 ± 0.017 | -0.0745 ± 0.00071 | -0.0085 ± 0.011 | -0.0125 ± 0.0092 | 0.006 ± 0.038 | -0.0065 ± 0.023 | -0.01 ± 0.016 | -0.005 ± 0.018 | -0.007 ± 0.016
LPS:CD106/VCAM-1 | 0.0075 ± 0.03 | -0.0065 ± 0.011 | 0.0085 ± 0.00071 | -0.0145 ± 0.005 | 0.01 | -0.0195 ± 0.005 | -0.026 ± 0.016 | -0.025 ± 0.027 | 0.011 ± 0.013 | 0.002 ± 0.037 | -0.0045 ± 0.011 | -0.023 ± 0.031 | -0.0065 ± 0.013 | -0.006 ± 0.027 | -0.0125 ± 0.059 | -0.033 ± 0.023 | -0.041 ± 0.016 | -0.023 ± 0.02 | -0.158 ± 0.17
BE3C:HLA-DR | -0.0105 ± 0.00071 | -0.0235 ± 0.0064 | 0.013 ± 0.011 | -0.0145 ± 0.022 | -0.0105 ± 0.0064 | 0 ± 0.0014 | -0.005 ± 0.0042 | -0.0015 ± 0.011 | 0.0155 ± 0.0064 | 0.006 ± 0.021 | -0.044 ± 0.0028 | -0.41 ± 0.032 | -0.013 ± 0.0085 | 0.003 ± 0.0042 | -0.0225 ± 0.0021 | 0.009 ± 0.025 | -0.0085 ± 0.026 | -0.077 ± 0.13 | -0.01 ± 0.023
BF4T:Keratin 8/18 | 0.005 ± 0.038 | -0.0385 ± 0.005 | -0.006 ± 0.054 | 0.0155 ± 0.028 | 0.0015 ± 0.022 | -0.0045 ± 0.005 | 0.003 ± 0.033 | 0.0035 ± 0.032 | 0.0035 ± 0.021 | 0.01 ± 0.024 | -0.0735 ± 0.0035 | -0.127 ± 0.016 | 0.0015 ± 0.005 | -0.0195 ± 0.025 | 0.017 ± 0.024 | -0.0085 ± 0.0092 | -0.0045 ± 0.023 | 0.03 ± 0.05 | 0.021 ± 0.051
